Assay results as given in PMC5567048, “A novel c-di-GMP binding domain in glycosyltransferase BgsA is responsible for the synthesis of a mixed-linkage β-glucan” (Scientific Reports, 2017).
Numbering of substitutions follows the chain as printed. Each block holds one compound with its values, some of them ahead of it.

Assays:
C-BgsA [1] = target: T1, C-BgsA (Sinorhizobium meliloti, UniProt Q92WG2, G635V); test: SPR direct binding, immobilised ligand
T1 construct: gene SM_b20391
T1 sequence (Q92WG2 526-664 G635V): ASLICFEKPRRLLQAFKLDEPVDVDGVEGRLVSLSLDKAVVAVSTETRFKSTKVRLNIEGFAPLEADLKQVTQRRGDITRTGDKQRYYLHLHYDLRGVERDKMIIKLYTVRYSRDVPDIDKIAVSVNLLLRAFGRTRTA

C-BgsA [2] = target: T2, C-BgsA (Sinorhizobium meliloti, UniProt Q92WG2); test: SPR direct binding, immobilised ligand
T2 construct: gene SM_b20391
T2 sequence (Q92WG2 526-664): T1 sequence (Q92WG2 526-664 G635V) with V110G

C-BgsA [3] = target: T3, C-BgsA (Sinorhizobium meliloti, UniProt Q92WG2, G635R); test: SPR direct binding, immobilised ligand
T3 construct: gene SM_b20391
T3 sequence (Q92WG2 526-664 G635R): T1 sequence (Q92WG2 526-664 G635V) with V110R

C-BgsA [4] = target: T2, C-BgsA; test: SPR solution competition against immobilised […]′-AHC-c-di-GMP chip; format: binding; settings: weak competitor; c-di-GMP at the same concentration gave 98%; 20 mM MOPS pH 8.0, 300 mM NaCl, 25 °C
C-BgsA [5] = target: T4, C-BgsA (Sinorhizobium meliloti, UniProt Q92WG2, R599A); test: as above; format: binding
T4 construct: gene SM_b20391

C-BgsA [6] = target: T2, C-BgsA; test: as above; format: binding
C-BgsA [7] = target: T5, C-BgsA (Sinorhizobium meliloti, UniProt Q92WG2, H615A); test: as above; format: binding
T5 construct: gene SM_b20391

C-BgsA [8] = target: T6, C-BgsA (Sinorhizobium meliloti, UniProt Q92WG2, R656A); test: as above; format: binding
T6 construct: gene SM_b20391

C-BgsA [9] = target: T7, C-BgsA (Sinorhizobium meliloti, UniProt Q92WG2, Y633A); test: as above; format: binding
T7 construct: gene SM_b20391

C-BgsA [10] = target: T8, C-BgsA (Sinorhizobium meliloti, UniProt Q92WG2, D608A); test: as above; format: binding
T8 construct: gene SM_b20391

C-BgsA [11] = target: T9, C-BgsA (Sinorhizobium meliloti, UniProt Q92WG2, R605A); test: as above; format: binding
T9 construct: gene SM_b20391
T9 sequence (Q92WG2 entry or part of it R605A): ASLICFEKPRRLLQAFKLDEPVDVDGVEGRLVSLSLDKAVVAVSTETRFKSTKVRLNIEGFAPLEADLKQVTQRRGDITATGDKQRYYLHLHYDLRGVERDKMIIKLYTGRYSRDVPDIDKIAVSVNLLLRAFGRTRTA

T6 sequence (Q92WG2 entry or part of it R656A): as the sequence (Q92WG2 entry or part of it R605A) above, with A80R, R131A counted along it
T4 sequence (Q92WG2 entry or part of it R599A): as the sequence (Q92WG2 entry or part of it R605A) above, with R74A, A80R counted along it
T7 sequence (Q92WG2 entry or part of it Y633A): as the sequence (Q92WG2 entry or part of it R605A) above, with A80R, Y108A counted along it
T5 sequence (Q92WG2 entry or part of it H615A): as the sequence (Q92WG2 entry or part of it R605A) above, with A80R, H90A counted along it
T8 sequence (Q92WG2 entry or part of it D608A): as the sequence (Q92WG2 entry or part of it R605A) above, with A80R, D83A counted along it

SMILES: NCCCCCCNC(=O)O[C@@H]1[C@@H]2OP(=O)(O)OC[C@H]3O[C@@H](n4cnc5c(=O)[nH]c(N)nc54)[C@H](O)[C@@H]3OP(=O)(O)OC[C@H]2O[C@H]1n1cnc2c(=O)[nH]c(N)nc21 [2′-AHC-c-di-GMP]
- Kd (C-BgsA [1]): 140 nM
- Kd (C-BgsA [2]): 230 nM
- Kd (C-BgsA [3]): 190 nM

- % reduction of C-BgsA binding at 500 μM (C-BgsA [4]): 17%
SMILES: Nc1ncnc2c1ncn2[C@@H]1O[C@@H]2COP(=O)(O)O[C@H]3[C@@H](O)[C@H](n4cnc5c(N)ncnc54)O[C@@H]3COP(=O)(O)O[C@H]2[C@H]1O [c-di-AMP]

- EC50 (C-BgsA [5]): 372000 ± 114000 nM
- EC50 (C-BgsA [6]): 270 ± 10 nM
- EC50 (C-BgsA [7]): 292000 ± 73000 nM
- EC50 (C-BgsA [8]): 400 ± 50 nM
- EC50 (C-BgsA [9]): 230 ± 10 nM
- EC50 (C-BgsA [10]): 270 ± 70 nM
- EC50 (C-BgsA [11]): 140 ± 10 nM
SMILES: Nc1nc2c(ncn2[C@@H]2O[C@@H]3CO[P@](=O)(O)O[C@H]4[C@@H](O)[C@H](n5cnc6c(=O)[nH]c(N)nc65)O[C@@H]4CO[P@](=O)(O)O[C@H]3[C@H]2O)c(=O)[nH]1 [c-di-GMP]
